Data published in patent US20210221785A1, “AMINO-PYRIMIDONYL DERIVATIVES, A PROCESS FOR THEIR PREPARATION AND PHARMACEUTICAL COMPOSITIONS CONTAINING THEM” (LES LABORATOIRES SERVIER, priority 2018, published 2021).

Legend:
[1] = test system: Z138 mantle cell lymphoma tumour cell lines; assay: In vitro cytotoxicity, MTT assay; type: cell-based; details: Z138 cells exposed to the test compounds for 96 hours, cell viability vs DMSO treated cells
Method in brief: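 Z138 cells exposed to compounds for 96 hours, then MTT added for 4 hours. Viable cells quantified from formazan absorbance at 540 nm.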

[2] = target: T1, His-His-USP7 (aa208-560, |C315A|) (Homo sapiens, UniProt Q93009, C315A); assay: Evaluation of the inhibition of USP7 by the Fluorescence Intensity (FLINT) readings; type: biochemical; details: 0.25 nM His-His-USP7, compound incubated 60 minutes at 30° C., 500 nM Ubiquitin-Rhodamine-110 substrate; 50% reduction in kinetic rate
T1 construct: His-His-USP7 (aa208-560, |C315A|); His-His (N)
T1 sequence (Q93009 208-560 C315A): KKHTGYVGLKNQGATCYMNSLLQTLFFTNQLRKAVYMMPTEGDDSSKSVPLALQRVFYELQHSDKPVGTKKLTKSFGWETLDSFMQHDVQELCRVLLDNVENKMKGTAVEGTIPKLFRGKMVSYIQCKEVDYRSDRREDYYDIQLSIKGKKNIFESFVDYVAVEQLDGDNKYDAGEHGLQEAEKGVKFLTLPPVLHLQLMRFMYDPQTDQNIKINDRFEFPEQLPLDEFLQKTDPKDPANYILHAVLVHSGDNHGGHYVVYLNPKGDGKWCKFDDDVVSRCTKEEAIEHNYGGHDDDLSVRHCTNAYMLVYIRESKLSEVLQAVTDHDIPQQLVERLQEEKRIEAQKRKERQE
Method in brief: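 0.25 nM His-His-USP7 (aa208–560, C315A) preincubated 60 min at 30 °C with compound in 100 mM Bicine pH 8.0, 0.01% Triton X-100, 1 mM TCEP, 10% DMSO. Reaction started with 500 nM ubiquitin-rhodamine-110 and fluorescence (Ex485/Em535) read every 3 min for 21 min. IC50 derived from kinetic-rate reduction over an 11-point curve, 4-parameter fit.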

Row | Compound | IC50 [1] [µM] | IC50 [2] [nM] | IC50 ([1]; Homo sapiens, Z-138, 96 h) [µM]
1 | CO[C@]1(C#Cc2cccnn2)CC[C@@H](C(=O)N2CCC(O)(Cn3cnc(Oc4ccc(F)cc4)c(N)c3=O)CC2)[C@H](c2ccccc2)C1 [Example 146, 5-amino-6-(4-fluorophenoxy)-3-[(4-hydroxy-{[(1R,2R,4R)-4-methoxy-2-phenyl-4-[2-(pyridazin-3-yl)ethynyl]cyclohexyl]carbonyl}piperidin-4-yl)methyl]pyrimidin-4-one] | 0.00597 | 18.5 | –
2 | CO[C@@]1(C#Cc2cccnn2)CC[C@@H](C(=O)N2CCC(O)(Cn3cnc(Oc4ccc(F)cc4)c(N)c3=O)CC2)[C@H](c2ccccc2)C1 [Example 147, 5-amino-6-(4-fluorophenoxy)-3-[(4-hydroxy-1-{[(1R,2R,4S)-4-methoxy-2-phenyl-4-[2-(pyridazin-3-yl)ethynyl]cyclohexyl]carbonyl}piperidin-4-yl)methyl]pyrimidin-4-one] | – | 124 | 0.199
3 | Cc1nccnc1C#C[C@@]1(F)CC[C@@H](C(=O)N2CCC(O)(Cn3cnc(Oc4ccc(F)cc4)c(N)c3=O)CC2)[C@H](c2ccccc2)C1 [Example 148, 5-amino-3-({1-[(1R,2R,4R)-4-fluoro-4-[2-(3-methylpyrazin-2yl)ethynyl]-2-phenylcyclohexanecarbonyl]-4-hydroxypiperidin-4-yl}methyl)-6-(4-fluorophenoxy)-3,4-dihydropyrimidin-4-one] | – | 26.6 | 0.0101
4 | Cn1ccnc1C#C[C@@]1(F)CC[C@@H](C(=O)N2CCC(O)(Cn3cnc(Oc4ccc(F)cc4)c(N)c3=O)CC2)[C@H](c2ccccc2)C1 [Example 149, 5-amino-3-[(1-{[(1R,2R,4R)-4-fluoro-4-[2-(1-methylimidazol-2-yl)ethynyl]-2-phenylcyclohexyl]carbonyl}-4-hydroxypiperidin-4-yl)methyl]-6-(4-fluorophenoxy)pyrimidin-4-one] | – | 8.55 | 0.259
5 | Cc1cnc(C#CC2(F)CCC(C(=O)N3CCC(O)(Cn4cnc(Oc5ccc(F)cc5)c(N)c4=O)CC3)C(c3ccccc3)C2)cn1 [Example 150, 5-amino-3-({1-[1R,2R,4S)-4-fluoro-4-[2-(5-methylpyrazin-2-yl)ethynyl]-2-phenylcyclohexanecarbonyl]-4-hydroxypiperidin-4-yl}methyl)-6-(4-fluorophenoxy)-3,4-dihydropyrimidin-4-one] | – | 37.7 | 0.0258
6 | Cc1cnc(C#C[C@]2(F)CC[C@@H](C(=O)N3CCC(O)(Cn4cnc(Oc5ccc(F)cc5)c(N)c4=O)CC3)[C@H](c3ccccc3)C2)cn1 [Example 151, 5-amino-3-({1-[(1R,2R,4S)-4-fluoro-4-[2-(5-methylpyrazin-2-yl)ethynyl]-2-phenylcyclohexanecarbonyl]-4-hydroxypiperidin-4-yl}methyl)-6-(4-fluorophenoxy)-3,4-dihydropyrimidin-4-one] | – | 11.4 | 0.0191
7 | Cn1ccnc1C#C[C@]1(F)CC[C@@H](C(=O)N2CCC(O)(Cn3cnc(Oc4ccc(F)cc4)c(N)c3=O)CC2)[C@H](c2ccccc2)C1 [Example 152] | – | 30.3 | 0.268
8 | Nc1c(Oc2ccc(F)cc2)ncn(CC2(O)CCN(C(=O)[C@@H]3CC[C@](F)(C#Cc4nccnc4Cl)C[C@H]3c3ccccc3)CC2)c1=O [Example 153, 5-amino-3-({1-[(1R,2R,4R)-4-[2-(3-chloropyrazin-2-yl)ethynyl]-4-fluoro-2-phenylcyclohexanecarbonyl]-4-hydroxypiperidin-4-yl}methyl)-6-(4-fluorophenoxy)-3,4-dihydropyrimidin-4-one] | – | 37.1 | 0.0175
9 | COc1nccnc1C#C[C@@]1(F)CC[C@@H](C(=O)N2CCC(O)(Cn3cnc(Oc4ccc(F)cc4)c(N)c3=O)CC2)[C@H](c2ccccc2)C1 [Example 154, 5-amino-3-({1-[(1R,2R,4R)-4-fluoro-4-[2-(3-methoxypyrazin-2-yl)ethynyl]-2-phenylcyclohexanecarbonyl]-4-hydroxypiperidin-4-yl}methyl)-6-(4-fluorophenoxy)-3,4-dihydropyrimidin-4-one] | – | 24.7 | 0.016
10 | CO[C@]1(C#Cc2cnccn2)CC[C@@H](C(=O)N2CCC(O)(Cn3cnc(Oc4ccc(F)cc4)c(N)c3=O)CC2)[C@H](c2ccccc2)C1 [Example 156, 5-amino-6-(4-fluorophenoxy)-3-({4-hydroxy-1-[(1R,2R,4R)-4-methoxy-2-phenyl-4-[2-(pyrazin-2-yl)ethynyl]cyclohexanecarbonyl]piperidin-4-yl}methyl)-3,4-dihydropyrimidin-4-one] | – | 29.6 | 0.00653
11 | Nc1c(Oc2ccc(F)cc2)ncn(CC2(O)CCN(C(=O)[C@@H]3CC[C@](F)(C#Cc4cc(F)ccn4)C[C@H]3c3ccccc3)CC2)c1=O [Example 157, 5-amino-3-({1-[(1R,2R,4R)-4-fluoro-4-[2-(4-fluoropyridin-2-yl)ethynyl]-2-phenylcyclohexanecarbonyl]-4-hydroxypiperidin-4-yl}methyl)-6-(4-fluorophenoxy)-3,4-dihydropyrimidin-4-one] | – | 6.77 | 0.00716
12 | CO[C@]1(C#Cc2nccn2C)CC[C@@H](C(=O)N2CCC(O)(Cn3cnc(Oc4ccc(F)cc4)c(N)c3=O)CC2)[C@H](c2ccccc2)C1 [Example 159, 5-amino-6-(4-fluorophenoxy)-3-[(4-hydroxy-1-{[(1R,2R,4R)-4-methoxy-4-[2-(1-methylimidazol-2-yl)ethynyl]-2-phenytcyclohexyl]carbonyl}piperidin-4-yl)methyl]pyrimidin-4-one] | – | 28.2 | 0.0168
13 | Nc1cccc(C#C[C@@]2(F)CC[C@@H](C(=O)N3CCC(O)(Cn4cnc(Oc5ccc(F)cc5)c(N)c4=O)CC3)[C@H](c3ccccc3)C2)n1 [Example 161, 5-amino-3-[(1-{[(1R,2R,4R)-4-[2-(6-aminopyridin-2-yl)ethynyl]-4-fluoro-2-phenylcyclohexyl]carbonyl}-4-hydroxypiperidin-4-yl)methyl]-6-(4-fluurophenoxy)pyrimidin-4-one] | 0.0126 | 29.4 | –
14 | Cc1ccc(C#C[C@@]2(F)CC[C@@H](C(=O)N3CC[C@](O)(Cn4cnc(Oc5ccc(F)cc5)c(N)c4=O)C(F)(F)C3)[C@H](c3ccccc3)C2)nn1 [Example 162, 5-amino-3-[[(4S)-3,3-difluoro-1-[(1R,2R,4R)-4-fluoro-4-[2-(6-methylpyridazin-3-yl)ethynyl]-2-phenylcyclohexanecarbonyl]-4-hydroxypiperidin-4-yl]methyl]-6-(4-fluorophenoxy)-3,4-dihydropyrimidin-4-one] | – | 10 | 0.00647
15 | Nc1cccc(C#C[C@@]2(F)CC[C@@H](C(=O)N3CC[C@](O)(Cn4cnc(Oc5ccc(F)cc5)c(N)c4=O)C(F)(F)C3)[C@H](c3ccccc3)C2)n1 [Example 163, 5-amino-3-{[(4S)-1-[(1R,2R,4R)-4-[2-(6-aminopyridin-2-yl)ethynyl]-4-fluoro-2-phenylcyclohexanecarbonyl]-3,3-difluoro-4-hydroxypiperidin-4-yl]methyl}-6-(4-fluorophenoxy)-3,4-dihydropyrimidin-4-one] | – | 52.4 | 0.0277
